In one assay the test system is Stress-induced erosion. The experiment in a line: Stress-induced erosion test (Senay & Levine), anti-ulcer activity. The class given is in vivo. As for the experimental part: (§1) Anti-ulcer activity was determined by the stress-induced erosion test of Senay & Levine, Proc. Soc. Exp. Biol. Med., 124, 1221-3(1967) and anti-secretory activity by the test of H. Shay, D. Sun and H. Greenstein, Gastroentarology, 1954, 26, 903-13 as exemplified by Beattie et al J. Med. Chem., 20, 714 (1977). […] However, some compounds show activity in tests for anti-hypertensive activity.

In assay [1] the test system is Anti-secretory (gastric secretion volume). Put plainly: Anti-secretory test (Shay et al). It is filed as in vivo. As for the experimental part:
as §1

The test system of assay [2] is Female rats rendered hypertensive (unilateral nephrectomy, deoxycorticosterone acetate). Put plainly: Anti-hypertensive activity, Procedure B (deoxycorticosterone acetate hypertensive rats, systolic pressure). The class given is in vivo, rat. Conditions: 50 mg/kg orally, DOCA hypertensive female rats. As for the experimental part:
(§2) Some compounds of the invention were tested for anti-hypertensive activity by the following procedures.
Female rats are rendered hypertensive by unilateral nephrectomy and the s.c. implantation of a pellet containing 30 mg of deoxycorticosterone acetate. The drinking water is replaced by normal saline ad lib for the first four weeks following preparation. Blood pressures stabilise at a hypertensive level after 6 weeks. Systolic pressure is measured indirectly before dosing with a test compound using an E and M pneumatic pulse transducer and a Devices MX2 recorder. Groups of 4 rats are dosed orally with suspensions or solutions of the test compound in 0.5% hydroxypropyl-methyl-cellulose 0.9% saline vehicle. Blood pressures are recorded again at 2, 6 and 24 hours and the results, expressed as a percentage of the pre-dose values compared with those of a similar group of rats receiving vehicle alone.

The test system of assay [3] is male spontaneously hypertensive rats. The experiment in a line: Anti-hypertensive activity, Procedure A (spontaneously hypertensive rats, systolic pressure). The class given is in vivo, rat. As for the experimental part:
as §2
Systolic pressure of male spontaneously hypertensive rats is measured by an indirect technique using the Decker Caudal Plethylsmograph or other appropriate sensor. Groups usually consist of 4 rats. Drugs are usually administered orally. Pressures are usually read prior to drug administration and at 1.5, 4 and 24 hours thereafter. The schedule may be altered depending upon the behaviour of the drug.

The structures appear in SMILES notation.

As for `Cc1[nH]cnc1CSc1cccc[n+]1C` [Example 1, 1-Methyl-2(4-[5-methylimidazolyl]methylthio)pyridinium chloride], in the assay on Stress-induced erosion, the inhibition in vivo (usually how much of the control response was suppressed) at 100 mg/kg was found to be 69%. Moreover, the “Anti-secretory (Shay et al), % change in volume” value in assay [1] (Dose 10 mg/kg) is -43%; in assay [1] (Dose 30 mg/kg), -65%. Moreover, in assay [2], the “Anti-hypertensive activity (Procedure B)” value is “inactive”.

`C[n+]1ccccc1SCc1ccccn1` [Example 2, 1-Methyl-2(2-pyridyl)methylthio)pyridinium chloride] came in with an inhibition in vivo at 100 mg/kg in the assay on Stress-induced erosion of 50%. In addition, in assay [1] (Dose 30 mg/kg), the “Anti-secretory (Shay et al), % change in volume” value is reported as -31%.

In turn, `C[n+]1ccccc1SCc1c[nH]cn1` [Example 3, 1-Methyl-2(4-imidazolylmethylthio)pyridinium chloride] registered an inhibition in vivo at 100 mg/kg with Stress-induced erosion of 67%. The “Anti-secretory (Shay et al), % change in volume” value in assay [1] (Dose 30 mg/kg) was -71%. Also, the “Anti-hypertensive activity (Procedure A)” value in assay [3] (75 mg/kg orally) is on record as “showed activity”.

In the assay with Stress-induced erosion, `Cc1[nH]cnc1CSc1nccn1C` [Example 4, 1-Methyl-2(4-[5-methylimidazolyl]methylthio)imidazole] displayed an inhibition in vivo at 30 mg/kg of 58%. Also, the inhibition in vivo at 100 mg/kg in the assay with Stress-induced erosion is 83%. Also, the “Anti-secretory (Shay et al), % change in volume” value in assay [1] (Dose 10 mg/kg) is listed as -33%; in assay [1] (Dose 30 mg/kg), -87%. Further, the “Anti-hypertensive activity (Procedure B)” value in assay [2] was “active”.

In turn, `C[n+]1ccccc1SCc1cccnc1` [Example 5, 1-Methyl-2-(3-pyridylmethylthio)pyridinium chloride] showed an inhibition in vivo at 100 mg/kg in the assay on Stress-induced erosion of 58%. The “Anti-secretory (Shay et al), % change in volume” value in assay [1] (Dose 30 mg/kg) is given as -55%. The “Anti-hypertensive activity (Procedure A)” value in assay [3] (75 mg/kg orally) is reported as “showed activity”.

Turning to `Cc1[nH]cnc1CSc1ccccn1` [Example 6, 2-(4-[5-Methylimidazolyl]methylthio)pyridine], in the assay with Stress-induced erosion (Dose 3 mg/kg), testing at 3 mg/kg gave an inhibition in vivo of 56%. In addition, 10 mg/kg produced 68% inhibition in vivo in the assay on Stress-induced erosion (Dose 10 mg/kg). In addition, in assay [3] (75 mg/kg orally), the “Anti-hypertensive activity (Procedure A)” value was “inactive”.

The molecule `Cc1[nH]cnc1CSc1ccncc1` [Example 7, 4-(4-[5-Methylimidazolyl]methylthio)pyridine] gave an inhibition in vivo at 100 mg/kg in the assay on Stress-induced erosion of 87%. Further, the “Anti-secretory (Shay et al), % change in volume” value in assay [1] (Dose 30 mg/kg) is given as -60%. The “Anti-hypertensive activity (Procedure B)” value in assay [2] was “inactive”.

In the assay on Stress-induced erosion, `c1ccc(SCc2c[nH]cn2)nc1` [Example 8, 2-(4-Imidazolylmethylthio)pyridine] displayed an inhibition in vivo at 30 mg/kg of 70% and an inhibition in vivo at 100 mg/kg of 79%.

Take `C[n+]1ccccc1SCc1ccncc1` [Example 9, 1-Methyl-2-([(4-pyridyl)methyl]thio)pyridinium chloride]: in assay [3] (50 mg/kg orally), the “Anti-hypertensive activity (Procedure A)” value was “showed activity”.

As for `C[n+]1ccccc1SCc1ccc2ccccc2n1` [Example 10, 1-Methyl-2([(2-quinolyl)methyl]thio)pyridinium chloride], the “Anti-hypertensive activity (Procedure A)” value in assay [3] (50 mg/kg orally) is “showed activity”.

As for `C[n+]1ccccc1SCCN1CCCCC1` [Example 11, 1-Methyl-2-[(2-piperidinoethyl)thio]pyridinium chloride], the “Anti-secretory (Shay et al), % change in volume” value in assay [1] (Dose 30 mg/kg) was -35%.

The values are drawn from patent US4343805A, “Heterocyclic compounds” (John Wyeth & Brother Limited, priority 1978, dated 1982).
